Measurements taken from patent publication US20260285850A1, “SUBSTITUTED OXAZOLIDINONES AND IMIDAZOLINONES AS HERBICIDES” (FMC CORPORATION, priority 2023, published 2026).

What was measured:
Format in all cases: in vivo
rice (Oryza sativa) = experiment: Test B flooded paddy test, visual plant response rating 0-100; conditions: 250 g ai/ha, Flood, applied to paddy water, evaluated after 13 days
Outline: (§1)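 Treatment occurs at the 2-leaf stage by adding compound to floodwater standing 3 cm above the soil, a level kept for the whole test. Plants stay in the greenhouse 13 days before visual comparison with controls.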

[1] = tested on: barnyardgrass (Echinochloa crusgalli); experiment: as above; conditions: 250 g ai/ha, Flood, applied to paddy water, evaluated after 13 days
Outline: as §1

[2] = tested on: ducksalad (Heteranthera limosa); experiment: as above; conditions: 250 g ai/ha, Flood, applied to paddy water, evaluated after 13 days
Outline: as §1

[3] = tested on: sedge, umbrella (small-flower umbrella sedge, Cyperus difformis); experiment: as above; conditions: 250 g ai/ha, Flood, applied to paddy water, evaluated after 13 days
Outline: as §1

[4] = tested on: palmer (palmer amaranth, palmer pigweed, Amaranthus palmeri); experiment: Test A postemergence application, visual injury rating 0-100
Outline: (§2)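 Plants were grown in a loam soil-sand blend and treated with test chemical in a non-phytotoxic solvent mixture containing surfactant, either sprayed on soil preemergence or applied postemergence to 2-10 cm plants. After 10 days in a greenhouse, injury was scored visually against untreated controls, 0 meaning no effect and 100 complete control.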

[5] = tested on: ragweed (common ragweed, Ambrosia artemisiifolia); experiment: as above
Outline: as §2

[6] = tested on: horseweed (Erigeron canadensis); experiment: as above
Outline: as §2

[7] = tested on: blackgrass (Alopecurus myosuroides); experiment: as above
Outline: as §2

kochia (Bassia scoparia) [8] = experiment: as above
Outline: as §2

[9] = tested on: wheat (Triticum aestivum); experiment: as above
Outline: as §2

corn (Zea mays) [10] = experiment: as above
Outline: as §2

[11] = tested on: ryegrass, Italian (italian ryegrass, Lolium multiflorum); experiment: as above
Outline: as §2

[12] = tested on: oat, wild (wild oat, Avena fatua); experiment: as above
Outline: as §2

[13] = tested on: green foxtail (Setaria viridis); experiment: as above
Outline: as §2

[14] = tested on: barnyardgrass (Echinochloa crus-galli); experiment: as above
Outline: as §2

soybean (Glycine max) [15] = experiment: as above
Outline: as §2

[16] = tested on: palmer (palmer amaranth, palmer pigweed, Amaranthus palmeri); experiment: Test A preemergence soil spray, visual injury rating 0-100; conditions: 10 days
Outline: as §2

[17] = tested on: ragweed (common ragweed, Ambrosia artemisiifolia); experiment: as above; conditions: 10 days
Outline: as §2

[18] = tested on: blackgrass (Alopecurus myosuroides); experiment: as above; conditions: 10 days
Outline: as §2

kochia (Bassia scoparia) [19] = experiment: as above; conditions: 10 days
Outline: as §2

[20] = tested on: wheat (Triticum aestivum); experiment: as above; conditions: 10 days
Outline: as §2

corn (Zea mays) [21] = experiment: as above; conditions: 10 days
Outline: as §2

[22] = tested on: ryegrass, Italian (italian ryegrass, Lolium multiflorum); experiment: as above; conditions: 10 days
Outline: as §2

[23] = tested on: oat, wild (wild oat, Avena fatua); experiment: as above; conditions: 10 days
Outline: as §2

[24] = tested on: green foxtail (Setaria viridis); experiment: as above; conditions: 10 days
Outline: as §2

[25] = tested on: barnyardgrass (Echinochloa crus-galli); experiment: as above; conditions: 10 days
Outline: as §2

soybean (Glycine max) [26] = experiment: as above; conditions: 10 days
Outline: as §2

[27] = 62 g ai/ha, postemergence, 10 days, 0 = no effect, 100 = complete control
[28] = Postemergence, 16 g ai/ha, greenhouse 10 days, 0 no effect, 100 complete control
[29] = 62 g ai/ha, 0 = no effect, 100 = complete control

CCOC(=O)C1=CCC(NC(=O)C2(C)CN(c3cc(F)cc(F)c3)C(=O)O2)C1 (centres unmarked) [Compound 112]
Plant response rating, Rice (0 to 100 scale, 0 is no effect and 100 is complete control) (rice (Oryza sativa)): 85 | Plant response rating, Barnyardgrass (0 to 100 scale, 0 is no effect and 100 is complete control) [1]: 80 | Plant response rating, Ducksalad (0 to 100 scale, 0 is no effect and 100 is complete control) [2]: 95 | Plant response rating, Sedge, Umbrella (0 to 100 scale, 0 is no effect and 100 is complete control) [3]: 95 | Pigweed, Palmer plant response rating (0-100) [4, 27]: 80 | Pigweed, Palmer plant response rating (0 to 100 scale) [4, 28]: 30 | Ragweed plant response rating (0-100) [5, 27]: 50 | Ragweed plant response rating (0 to 100 scale) [5, 28]: 50 | Horseweed plant response rating (0-100) [6, 27]: 0 | Horseweed plant response rating (0 to 100 scale) [6, 28]: 0 | Blackgrass plant response rating (0-100) [7, 27]: 80 | Blackgrass plant response rating (0 to 100 scale) [7, 28]: 70 | Kochia plant response rating (0-100) (kochia (Bassia scoparia) [8]; [27]): 90 | Kochia plant response rating (0 to 100 scale) (kochia (Bassia scoparia) [8]; [28]): 60 | Wheat plant response rating (0-100) [9, 27]: 90 | Wheat plant response rating (0 to 100 scale) [9, 28]: 90 | Corn plant response rating (0-100) (corn (Zea mays) [10]; [27]): 100 | Corn plant response rating (0 to 100 scale) (corn (Zea mays) [10]; [28]): 100 | Ryegrass, Italian plant response rating (0-100) [11, 27]: 90 | Ryegrass, Italian plant response rating (0 to 100 scale) [11, 28]: 60 | Oat, Wild plant response rating (0-100) [12, 27]: 90 | Oat, Wild plant response rating (0 to 100 scale) [12, 28]: 50 | Foxtail, Green plant response rating (0-100) [13, 27]: 90 | Foxtail, Green plant response rating (0 to 100 scale) [13, 28]: 90 | Barnyardgrass plant response rating (0-100) [14, 27]: 100 | Barnyardgrass plant response rating (0 to 100 scale) [14, 28]: 100 | Soybean plant response rating (0-100) (soybean (Glycine max) [15]; [27]): 80 | Soybean plant response rating (0 to 100 scale) (soybean (Glycine max) [15]; [28]): 60 | Pigweed, Palmer plant response rating ([16]; 16 g ai/ha, 0 to 100 scale): 0 | Pigweed, Palmer plant response rating (0-100) [16, 29]: 100 | Ragweed plant response rating ([17]; 16 g ai/ha, 0 to 100 scale): 0 | Ragweed plant response rating (0-100) [17, 29]: 0 | Blackgrass plant response rating ([18]; 16 g ai/ha, 0 to 100 scale): 0 | Blackgrass plant response rating (0-100) [18, 29]: 30 | Kochia plant response rating (kochia (Bassia scoparia) [19]; 16 g ai/ha, 0 to 100 scale): 0 | Kochia plant response rating (0-100) (kochia (Bassia scoparia) [19]; [29]): 70 | Wheat plant response rating ([20]; 16 g ai/ha, 0 to 100 scale): 40 | Wheat plant response rating (0-100) [20, 29]: 70 | Corn plant response rating (corn (Zea mays) [21]; 16 g ai/ha, 0 to 100 scale): 20 | Corn plant response rating (0-100) (corn (Zea mays) [21]; [29]): 60 | Ryegrass, Italian plant response rating ([22]; 16 g ai/ha, 0 to 100 scale): 60 | Ryegrass, Italian plant response rating (0-100) [22, 29]: 80 | Oat, Wild plant response rating ([23]; 16 g ai/ha, 0 to 100 scale): 0 | Oat, Wild plant response rating (0-100) [23, 29]: 0 | Foxtail, Green plant response rating ([24]; 16 g ai/ha, 0 to 100 scale): 20 | Foxtail, Green plant response rating (0-100) [24, 29]: 100 | Barnyardgrass plant response rating ([25]; 16 g ai/ha, 0 to 100 scale): 20 | Barnyardgrass plant response rating (0-100) [25, 29]: 100 | Soybean plant response rating (soybean (Glycine max) [26]; 16 g ai/ha, 0 to 100 scale): 10 | Soybean plant response rating (0-100) (soybean (Glycine max) [26]; [29]): 0
